Reference: patent US9040250B2, “Binding interaction of proanthocyanidins with bacteria and bacterial components” (The United States of America, as represented by the …, priority 2006, dated 2015)
pIC50: −log10 of the molar value. Like-named read-outs stand apart in the source and are kept apart here.

Tests used:
[1] = system: LPS-FITC (E. coli 055:B5); assay: LPS-FITC binding by PACs immobilized on glass waveguide (stationary assay); design: species or system Escherichia coli; details: patterned at 10 mg/mL via PMPI; LPS-FITC 1 hour
Excerpt: Immobilization of PACs and LPS binding assay—To determine the ability of PAC materials to effectively bind bacteria and bacterial cell components upon immobilization to a solid support, PACs from cranberry and grape juices were covalently attached to the surface of a glass microscope slide (waveguide) using a modification of a common technique used for protein immobilization (Rowe et al., Anal. Chem., 71, 3846 (1999)). Catechin monomer and buffer only areas were also included as controls. Briefly, the waveguides, glass microscope slides (Daigger, Wheeling, Ill.), were cleaned by immersion in potassium hydroxide/methanol solution (Cras et al., Biosens. Bioelectron., 14, 683 (1999)) followed by rinsing and drying. The clean waveguides were then incubated with 2% (3-mercaptopropyl)triethoxysilane (Pierce Chemicals, Rockford, Ill.) in toluene for 45 minutes followed by rinsing and drying. The slides were immersed in 1.8 mM N-[p-maleimidophenyl]isocyanate (PMPI) in ethanol for 1 hour. The maleimide-group of PMPI reacts with the sulfhydryl-group provided by the silane reaction leaving the isocyanate-group free to react with the hydroxyl-groups of PACs. […] Slides were imaged using evanescent wave fluorescence spectroscopy with excitation at 496 nm and emission collected above 515 nm. […]

HEK-CD14-TLR4/MD2 cells = assay: Cytotoxicity, CellTiter96 cell proliferation assay; type: cell-based, human; details: 48 h culture
Method: Cytotoxicity assays—Cellular toxicity was measured using a calorimetric cell proliferation assay (CellTiter96™, Promega). HEK-CD14-TLR4/MD2 cells were seeded into the wells of a 96-well plate (1×10^4 cells/well) and cultured with a dose range of test compounds for 48 h prior to assay according to the manufacturer's instructions.

[2] = system: FITC-labeled LPS (from E. coli 055:B5); assay: Fluorescence-based pull down assay of FITC-LPS with Sepharose-immobilized PACs; type: binding, Escherichia coli; details: for pIC50: PAC beads equilibrated with lipid A, 3 μg/mL FITC-LPS (approx. 3 nM)
Method: PAC and catechin immobilization—Purified PACs and catechin (Sigma-Aldrich) were immobilized onto activated thiol-Sepharose® 4B (Sigma-Aldrich) via a (N-[p-maleimidophenyl]isocyanate) (PMPI; Pierce) crosslinker. Sepharose® was swelled in deionized water for 1 hour (1 g dry material in 15 mL H2O). The material was then washed using fresh dI-H2O over five suspend/centrifuge/decant cycles (total 50 mL per gram dry starting material). Suspension was accomplished using a vortex and centrifuge steps were conducted at 3,000 g for five minutes. The Sepharose® material (total volume 5 mL per gram starting material) was then rinsed three times with ethanol (total volume 30 mL per gram starting material). The PMPI crosslinker was incubated with the rinsed Sepharose material for 1 hour at room temperature under constant agitation using a 10-fold molar excess of PMPI over the thiol-group concentration with 3% dimethylsulfoxide in ethanol (10 mL per gram starting material). Incubation was followed by centrifuging, decanting, and rinsing in 50% ethanol for three cycles. The Sepharose was then incubated overnight at 4° C. in ethanol with PAC or catechin using a 10-fold molar excess of analyte in 50% ethanol (10 mL per gram starting material). As a final step, the Sepharose was rinsed over four cycles using 50% ethanol (40 mL total per gram starting material) and resuspended in 0.02% sodium azide in H2O (16 mL final volume per gram starting material). The materials were stored in the dark at 4° C. until use. PAC concentrations for bead sets were determined by Prussian blue assay.
Fluorescence-based pull down assays for lipopolysaccharide (LPS) were conducted in 50 mM TRIS at pH 8.0 using Sepharose-immobilized PACs and agarose-immobilized polymyxin B (Sigma-Aldrich, St. Louis, Mo.). […] The fluorescence of the FITC-labeled LPS (from E. coli 055:B5; Sigma-Aldrich) was measured using a Tecan XSafire monochrometer-based micro plate reader at 495 nm excitation and 520 nm emission (5 nm bandwidths). […]

[3] = system: HEK 293 cells stably expressing human CD14 and TLR4/MD2; assay: LPS membrane binding in HEK-CD14-TLR4/MD2 cells; type: cell-based; details: 25 nM LPS, 1.5 h 37° C.; 0.5 μM PAC; antibodies 500 nM in binding sites
Method: (§1) Analysis of LPS membrane binding and endocytosis. Human embryonic kidney cells (HEK 293) stably expressing human CD14 and TLR4/MD2 (HEK-CD14-TLR4/MD2; Invivogen) were grown in chambered wells and incubated with 25 nM LPS (E. coli serotype O55:B5, Sigma) in the absence or presence of 0.5 μM LH20 PAC (Dial>6K) for 1.5 h at 37° C. […] After incubation, the cells were washed with PBS (10 min) twice and either fixed (with 3.7% paraformaldehyde) to assess LPS membrane binding or fixed and permeabilized (with 0.1% Triton X-100) to determine LPS internalization. After blocking with 1% normal goat serum, membrane bound or internalized LPS was detected using a goat anti-LPS antibody (O/K serotype-specific, Abcam) conjugated to fluorescein. Nuclei were counterstained with DAPI. Imaging was performed using an Olympus IX-71 microscope. The relative amounts of membrane-associated or intracellular fluorescence were quantified by image analysis using Image J software (NIH, v. 1.37). Data is reported as the mean channel fluorescence from membrane-associated or internalized LPS and represents the analysis of 10 to 20 cells from each sample (minimum 10 measurements per each cell). Merged images were produced using Photoshop CS2 (ver. 9).

[4] = system: HEK 293 cells stably expressing human CD14 and TLR4/MD2; assay: LPS endocytosis (internalization) in HEK-CD14-TLR4/MD2 cells; type: cell-based; details: 25 nM LPS, 1.5 h 37° C.; 0.5 μM PAC; antibodies 500 nM in binding sites
Method: as §1

| Substance | binding of LPS-FITC by material immobilized on waveguide [1] | concentrations at which no toxicity was elicited (HEK-CD14-TLR4/MD2 cells) | pIC50 ([2]; read-out: IC50, inhibition of FITC-LPS binding by immobilized PACs from cranberries) | pIC50 ([2]; read-out: IC50, inhibition of FITC-LPS binding by immobilized PACs from tea) | inhibition of FITC-LPS binding by immobilized PACs at high lipid A concentration ([2]; lipid A concentrations as high as 100 μM) [%] | decrease in membrane-bound LPS (LPS binding inhibition) [3] | inhibition of LPS endocytosis [4] [%] |
| --- | --- | --- | --- | --- | --- | --- | --- |
| catechin | no binding even at the highest concentrations tested |  |  |  |  |  |  |
| diphosphoryl lipid A |  | below 3 μM | 6.30 | 7.00 | ≤ 80 | did not significantly reduce LPS membrane binding | 84 |
